target: Replicase polyprotein 1ab (Severe acute respiratory syndrome coronavirus 2, UniProt P0DTD1); assay: FRET-based enzymatic assay

Row | SMILES | IC50
1 | CCCCC1CCC(OC(=O)N[C@@H](CC(C)C)C(=O)N[C@H](C=O)C[C@@H]2CCNC2=O)CC1 (stereo not given in full) [Advanced SARS-CoV-2 Inhibitor 6e] | 10 nM
2 | C=CC(=O)N(c1ccc(-c2ccccc2)cc1)C(C(=O)N[C@@H](C)c1ccccc1)c1cccnc1 (stereo not given in full) [Jun9-51-3] | > 20000 nM
3 | O=C(NC1CCCC1)C(c1cccnc1)N(C(=O)CCl)c1ccc(-c2ccccc2)cc1 (stereo not given) [Jun9-55-1] | 300 nM
4 | O=C(NC1CCCCC1)C(c1cccnc1)N(C(=O)CCl)c1ccc(-c2ccccc2)cc1 (stereo not given) [Jun9-55-2] | 330 nM
5 | O=C(NC1CC1)C(c1cccnc1)N(C(=O)CCl)c1ccc(-c2ccccc2)cc1 (stereo not given) [Jun9-57-2] | 220 nM
6 | C[C@H](NC(=O)[C@@H](c1cnccn1)N(C(=O)CCl)c1ccc(-c2ccccc2)cc1)c1ccccc1 [Jun9-57-3R] | 50 nM
7 | C[C@H](NC(=O)C(c1cnccn1)N(C(=O)CCl)c1ccc(-c2ccccc2)cc1)c1ccccc1 (stereo not given in full) [Jun9-59-1] | 120 nM
8 | C[C@H](NC(=O)C(c1cccnc1)N(C(=O)CN=[N+]=[N-])c1ccc(-c2ccccc2)cc1)c1ccccc1 (stereo not given in full) [Jun9-61-1] | > 20000 nM
9 | C[C@H](NC(=O)C(c1cccnc1)N(C(=O)CF)c1ccc(-c2ccccc2)cc1)c1ccccc1 (stereo not given in full) [Jun9-61-4] | > 20000 nM
10 | CCOC(=O)/C=C/C(=O)N(c1ccc(-c2ccccc2)cc1)C(C(=O)N[C@@H](C)c1ccccc1)c1cccnc1 (stereo not given in full) [Jun9-72-3] | > 20000 nM
11 | C[C@H](NC(=O)C(c1cccnc1)N(C(=O)C(Cl)(Cl)Cl)c1ccc(-c2ccccc2)cc1)c1ccccc1 (stereo not given in full) [Jun9-72-4] | > 20000 nM
12 | C[C@H](NC(=O)C(c1cccnc1)N(C(=O)C(C)(Cl)Cl)c1ccc(-c2ccccc2)cc1)c1ccccc1 (stereo not given in full) [Jun9-76-4] | > 20000 nM
13 | C[C@H](Cl)C(=O)N(c1ccc(-c2ccccc2)cc1)C(C(=O)N[C@@H](C)c1ccccc1)c1cccnc1 (stereo not given in full) [Jun9-77-1] | > 20000 nM
14 | C[C@H](NC(=O)C(c1cccnc1)N(C(=O)C(F)(F)Cl)c1ccc(-c2ccccc2)cc1)c1ccccc1 (stereo not given in full) [Jun9-77-2] | > 20000 nM
15 | C[C@H](NC(=O)[C@@H](c1cccnc1)N(C(=O)C(Br)Br)c1ccc(-c2ccccc2)cc1)c1ccc(Br)cc1 [Jun9-89-2R] | 80 nM
16 | C=CC(=O)N(c1ccc(-c2ccccc2)cc1)C(C(=O)NCc1ccccc1)c1cccnc1 (stereo not given) [Jun10-15-2] | > 20000 nM
17 | C[C@H](NC(=O)C(c1cccnc1)N(C(=O)/C=C/CN(C)C)c1ccc(-c2ccccc2)cc1)c1ccccc1 (stereo not given in full) [Jun10-31-4] | > 20000 nM

target: Procathepsin L (Homo sapiens, UniProt P07711); assay: FRET-based enzymatic assay
Sequence (P07711 whole entry): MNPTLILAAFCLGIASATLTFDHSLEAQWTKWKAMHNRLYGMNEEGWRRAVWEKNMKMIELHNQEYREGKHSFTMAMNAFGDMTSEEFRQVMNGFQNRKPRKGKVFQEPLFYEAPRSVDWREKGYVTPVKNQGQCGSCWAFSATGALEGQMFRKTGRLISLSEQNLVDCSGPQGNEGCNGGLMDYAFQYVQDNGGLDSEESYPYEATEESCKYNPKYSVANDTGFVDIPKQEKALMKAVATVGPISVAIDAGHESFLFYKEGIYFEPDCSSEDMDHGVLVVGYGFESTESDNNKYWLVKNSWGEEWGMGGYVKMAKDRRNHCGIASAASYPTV

Row | SMILES | IC50
18 | CC(C)C[C@H](NC(=O)OCc1ccccc1)C(=O)N[C@@H](CC1CCNC1=O)C(O)S(=O)(=O)O (stereo not given in full) [GC376] | 0.99 nM
19 | COc1cccc2[nH]c(C(=O)N[C@@H](CC(C)C)C(=O)N[C@@H](C[C@@H]3CCNC3=O)C(=O)CO)cc12 [WO2005113580-Ex-02] | 146 nM
20 | CC(OC(C)(C)C)[C@H](NC(=O)OCc1ccccc1)C(=O)N[C@@H](CC1CCCCC1)C(=O)N[C@H](C=O)C[C@@H]1CCNC1=O (stereo not given in full) [jm5b01461, Compound 45] | 1.2 nM
